Data from patent publication US20120003661A1, “METHODS AND DEVICES FOR THE SELECTIVE DETECTION OF MICROORGANISMS” (C3 JIAN, INC., priority 2010, published 2012).
Entries after “also recorded” stand apart in the source; their conditions may differ. Read-outs that look alike come from different tables or passages of the source. Ends that are not written are not given here.

Assays:
S. epidermidis = assay: MIC of antimicrobial peptides (Table 4); format: cell-based, Staphylococcus epidermidis
MRSA = assay: MIC of antimicrobial peptides (Table 4); format: cell-based, Methicillin-resistant Staphylococcus aureus
[1] = test system: bacteria, fungi, and/or yeasts; format: binding
B. subtilis = assay: MIC of antimicrobial peptides (Table 4); format: cell-based, Bacillus subtilis; settings: B. subtilis
S. pneumoniae = assay: MIC of antimicrobial peptides (Table 4); format: cell-based, Streptococcus pneumoniae
A. niger = assay: MIC of antimicrobial peptides (Table 4); format: cell-based, Aspergillus niger
S. mutans = assay: MIC of antimicrobial peptides (Table 4); format: cell-based, Streptococcus mutans
T. rubrum = assay: MIC of antimicrobial peptides (Table 4); format: cell-based, Trichophyton rubrum
[2] = microorganism(s) listed as target(s) of the targeting peptide, wrapped target lists given cell by cell
[3] = microorganism(s) that the targeting peptide binds, as listed in Table 2
[4] = microorganism(s) the targeting peptide binds, as listed in Table 2

KFQGEFTNIGQSYIVSASHMSTSLNTGK [PF-583]
Organism MIC (S. epidermidis): S. epidermidis, 50 μM | Organism MIC (MRSA): MRSA, 50 μM | Target(s) [1, 2]: C. albicans hyphae

VYSFLYVLVIVRKLLSMKKRIERL [PF-499]
Organism MIC (B. subtilis): B. subtilis, 50 μM

SFMPEIQKNTIPTQMK [PF-512]
Organism MIC (S. pneumoniae): S. pneumoniae, 50 μM

KFSDQIDKGQDALKDKLGDL [PF-525]
Organism MIC (A. niger): A. niger, 50 μM | Organism MIC (S. pneumoniae): S. pneumoniae, 50 μM

SLQSQLGPCLHDQRH [PF-448]
Organism MIC (A. niger): A. niger, 25 μM | Organism MIC (S. pneumoniae): S. pneumoniae, 50 μM

GLGRVIGRLIKQIIWRR [K-1]
Organism MIC (S. mutans): S. mutans, 25 μM

CGKLLEQKNFFLKTR [PF-521]
Organism MIC (S. pneumoniae): S. pneumoniae, 50 μM

NYRLVNAIFSKIFKKKFIKF [K-7]
Organism MIC (S. mutans): S. mutans, 12.5 μM

LSEMERRRLRKRA-NH2 [PF-529]
Organism MIC (A. niger): A. niger, 50 μM | Organism MIC (S. pneumoniae): S. pneumoniae, 50 μM

RRGCTERLRRMARRNAWDLYAEHFY [PF-148]
Organism MIC (A. niger): A. niger, 50 μM | Organism MIC (B. subtilis): B. subtilis, 50 μM | Target(s) [1, 2]: S. epidermidis, M. luteus, P. mirabilis,; also recorded: E. coli, P. aeruginosa,; also recorded: C. albicans, MRSA, S. pneumoniae,; also recorded: E. faecalis, C. jeikeium,; also recorded: C. jejuni, M. smegmatis

GIFKKFVKILYKVQKL [K-22]
Organism MIC (S. mutans): S. mutans, 8 μM

FIRKFLKKWLL [K-9]
Organism MIC (S. mutans): S. mutans, 4 μM

VLPFPAIPLSRRRACVAAPRPRSRQRAS [PF-168]
Organism MIC (A. niger): A. niger, 50 μM | Organism MIC (T. rubrum): T. rubrum, 50 μM | Organism MIC (MRSA): MRSA, 50 μM | Target(s) [1, 2]: yeast cells; also recorded: S. epidermidis, M. luteus, E. coli,; also recorded: C. albicans, MRSA, C. jeikeium,; also recorded: C. jejuni

LLKLLKLKKLKF [K-19]
Organism MIC (S. mutans): S. mutans, 16 μM

KILKFLFKKVF [K-8]
Organism MIC (S. mutans): S. mutans, 4 μM

FTRKFLKFLHL [K-17]
Organism MIC (S. mutans): S. mutans, 8 μM

ASKQASKQASKQASKQASKQASRSLKNHLL [PF-523]
Organism MIC (S. pneumoniae): S. pneumoniae, 50 μM

LRKFLHKLF [K-14]
Organism MIC (S. mutans): S. mutans, 8 μM

LGLTAGVAYAAQPTNQPTNQPTNQPTNQPTNQPTNQPRW-NH2 [PF-520]
Organism MIC (S. pneumoniae): S. pneumoniae, 50 μM

KLFKFLRKHLL [K-10]
Organism MIC (S. mutans): S. mutans, 4 μM

VYRKRKSILKIYAKLKGWH [K-2]
Organism MIC (S. mutans): S. mutans, 12.5 μM

PDAPRTCYHKPILAALSRIVVTDR [PF-524]
Organism MIC (S. pneumoniae): S. pneumoniae, 50 μM

VMQSLYVKPPLILVTKLAQQN [PF-511]
Organism MIC (S. pneumoniae): S. pneumoniae, 50 μM

FLKFLKKFFKKLKY [K-20]
Organism MIC (S. mutans): S. mutans, 8 μM

GWLKMFKKIIGKFGKF [K-21]
Organism MIC (S. mutans): S. mutans, 8 μM

FQKPFTGEEVEDFQDDDEIPTII [PF-437]
Organism MIC (S. pneumoniae): S. pneumoniae, 50 μM

GILKKLFTKVF [K-13]
Organism MIC (S. mutans): S. mutans, 16 μM

RESKLIAMADMIRRRI-NH2 [PF-545]
Organism MIC (A. niger): A. niger, 50 μM | Organism MIC (MRSA): MRSA, 50 μM | Organism MIC (B. subtilis): B. subtilis, 25 μM

GIVLIGLKLIPLLANVLR [PF-322]
Organism MIC (B. subtilis): B. subtilis, 50 μM

WSRVPGHSDTGWKVWHRW-NH2 [PF-547]
Organism MIC (S. mutans): S. mutans, 12.5 μM | Organism MIC (T. rubrum): T. rubrum, 25 μM | Organism MIC (B. subtilis): B. subtilis, 25 μM

MIRIRSPTKKKLNRNSISDWKSNTSGRFFY [PF-283]
Organism MIC (T. rubrum): T. rubrum, 50 μM | Organism MIC (S. epidermidis): S. epidermidis, 50 μM | Organism MIC (B. subtilis): B. subtilis, 50 μM

LVLRICTDLFTFIKWTIKQRKS [PF-497]
Organism MIC (B. subtilis): B. subtilis, 50 μM

LRKNLRWLF [K-15]
Organism MIC (S. mutans): S. mutans, 4 μM

1T-265 (GMFENLLMINFQIMNDLKIEIVVKDRICAV)
Target(s) [1, 2]: A. naeslundii, F. nucleatum, P. gingivalis,; also recorded: S. epidermidis, S. gordonii,; also recorded: S. mitis, S. mutans, S. oralis,; also recorded: S. salivarious, S. sanguinis

PF-165 (GPVSVVASLRRGTTVQRHSQNNHNKGKP)
Target(s) [1, 2]: MRSA, C. jejuni

TT-310 (TKLKKNNKLLSAKKENTLHTKDK)
Target(s) [1, 2]: F. nucleatum,

PF-065 (LEKNTRDNYFIHAIDRIYINTSKGLFPESELVAWG)
Target(s) [1, 2]: M. luteus, E. coli, P. aeruginosa,; also recorded: C. albicans, MRSA, S. pneumoniae,; also recorded: C. jeikeium, C. jejuni

1T-295 (KYKLKKIIL)
Target(s) [1, 2]: S. mitis, S. salivarious, S. sanguinis

PF-791 (IFLTTQNTDYSEHNAA)
Target(s) [1, 3]: S. mutans

PF-V (KFINGVLSQFVLERK)
Target(s) [1, 3]: S. mutans

1T-221 (DIGRIIGKKGRTITAIRSIVYSVPTQGKKVRLVIDEK)
Target(s) [1, 4]: A. naeslundii, F. nucleatum, P. gingivalis,; also recorded: S. epidermidis, S. gordonii,; also recorded: S. mitis, S. mutans, S. oralis,; also recorded: S. salivarious, S. sanguinis

PF-C137 (QRMYWFKRGFETGDFSAGDTFAELK)
Target(s) [1, 3]: A. naeslundii, F. nucleatum, P. gingivalis,; also recorded: S. mutans

PF-013 (LIQKGLNQTFIVVIRLNNFIKKS)
Target(s) [1, 2]: M. luteus, P. mirabilis, E. coli, P. aeruginosa,; also recorded: MRSA, S. pneumoniae,; also recorded: C. jeikeium, C. jejuni

PF-035 (SFYESY)
Target(s) [1, 2]: S. epidermidis, M. luteus, E. coli,; also recorded: C. albicans, MRSA, C. jeikeium,; also recorded: C. jejuni

PF-C290 (GNVHPESDFHNLIQFIKTFLYFTIFFKYFL)
Target(s) [1, 3]: A. naeslundii, F. nucleatum, P. gingivalis,; also recorded: S. mutans, T. denticola

1T-285 (FFPYYLADFYKQLKFLNEYQTKNKDKVVEFK)
Target(s) [1, 2]: A. naeslundii, F. nucleatum, P. gingivalis,; also recorded: S. gordonii, S. mitis,; also recorded: S. mutans, S. oralis, S. salivarious,; also recorded: S. sanguinis

PF-029 (NSTNE)
Target(s) [1, 2]: S. epidermidis, M. luteus, C. albicans,; also recorded: C. jejuni

1T-97 (GVAERNLDRITVAVAIIWTITIVGLGLVAKLG)
Target(s) [1, 4]: A. naeslundii, F. nucleatum, P. gingivalis,; also recorded: S. epidermidis, S. gordonii,; also recorded: S. mitis, S. mutans, S. oralis,; also recorded: S. salivarious, S. sanguinis

1T-14 (ALAGLAGLISGK)
Target(s) [1, 2]: yeast and hyphal forms | Target(s) [1, 4]: S. mutans, S. aureus, S. epidermidis,; also recorded: C. xerosis

1T-233 (TDQELEHLIVTELESKRLDFTYSKDITEFFDEAFPEYDQNY)
Target(s) [1, 4]: A. naeslundii, P. gingivalis, S. epidermidis,; also recorded: S. gordonii, S. mitis,; also recorded: S. mutans, S. oralis, S. salivarious,; also recorded: S. sanguinis

PF-C143 (VVFGGGDRLV)
Target(s) [1, 3]: A. naeslundii, F. nucleatum, P. gingivalis,; also recorded: S. mutans, T. denticola

PF-796 (YTQSNIPTAYALMLSNKDSI)
Target(s) [1, 3]: S. mutans

1T-188 (HRKDVYKK)
Target(s) [1, 4]: S. sanguinis

NYAVVSHT [PF-209]
Organism MIC (MRSA): MRSA, 50 μM

KKFKKFKVLKIL [K-18]
Organism MIC (S. mutans): S. mutans, 16 μM

PF-025 (LLIIFRLWLELKWKNKK)
Target(s) [1, 2]: S. epidermidis, M. luteus, P. mirabilis,; also recorded: E. coli, P. aeruginosa,; also recorded: MRSA, E. faecalis, C. jejuni

PF-C080 (INIPGLF)
Target(s) [1, 3]: A. naeslundii, F. nucleatum, S. mutans

PF-C057 (YFWWYWVQDCIPYKNNEVWLELSNNMK)
Target(s) [1, 3]: A. naeslundii, F. nucleatum, P. gingivalis,; also recorded: S. mutans

1T-111 (GRLSRREEDPATSIILLRGAYRMAVF)
Target(s) [1, 4]: A. naeslundii, F. nucleatum, P. gingivalis,; also recorded: S. epidermidis, S. gordonii,; also recorded: S. mitis, S. mutans, S. oralis,; also recorded: S. salivarious, S. sanguinis

1T-131 (DEVWKMLGI)
Target(s) [1, 4]: A. naeslundii, F. nucleatum, P. gingivalis,; also recorded: T. denticola, S. gordonii,; also recorded: S. mitis, S. mutans, S. oralis,; also recorded: S. salivarious, S. sanguinis

PF-016 (RKQYDDLSFNFLY)
Target(s) [1, 2]: S. epidermidis, E. faecalis, C. jeikeium

1T-52 (DEYPAKLPLSDKGATEPRRH)
Target(s) [1, 4]: S. aureus, C. xerosis, P. aeruginosa

1T-35 (EICLTLVFPIRGSYSEAAKFPVPIHIVEDGTVELPK)
Target(s) [1, 4]: P. aeruginosa

1T-238 (IFNRRKFFQYFGLSKEAMVEHIQPFILDIWQIHLF)
Target(s) [1, 4]: A. naeslundii, F. nucleatum, P. gingivalis,; also recorded: S. epidermidis, S. gordonii,; also recorded: S. mitis, S. mutans, S. oralis,; also recorded: S. salivarious, S. sanguinis

1T-277 (IYYMRFVNKPLEKTFFKI)
Target(s) [1, 2]: A. naeslundii, F. nucleatum, P. gingivalis,; also recorded: T. denticola, S. gordonii,; also recorded: S. mitis, S. mutans, S. oralis,; also recorded: S. salivarious, S. sanguinis

1T-15 (DVILRVEAQ)
Target(s) [1, 2]: yeast and hyphal forms | Target(s) [1, 4]: S. mutans

PF-067 (DLIVKVHICFVVKTASGYCYLNKREAQAAI)
Target(s) [1, 2]: S. epidermidis, M. luteus, P. mirabilis,; also recorded: E. coli, P. aeruginosa,; also recorded: C. albicans, MRSA, S. pneumoniae,; also recorded: E. faecalis, C. jeikeium,; also recorded: C. jejuni

KILKKLFKFVF [K-12]
Organism MIC (S. mutans): S. mutans, 8 μM

PF-S023 (MAEDERRALKRRTNRGRTRTRKRITV)
Target(s) [1, 3]: S. epidermidis, MRSA

KILKFLFKQVF [K-11]
Organism MIC (S. mutans): S. mutans, 4 μM

1T-30 (GKAKPYQVRQVLRAVDKLETRRKKGGR)
Target(s) [1, 4]: S. aureus, S. epidermidis, C. xerosis,; also recorded: C. striatum, P. aeruginosa

1T-43 (DRCLSVLSWSPPKVSPLI)
Target(s) [1, 4]: C. jeikium, P. aeruginosa

PF-146 (GCGKRRIITKSASRDTR)
Target(s) [1, 2]: S. epidermidis, M. luteus, P. aeruginosa,; also recorded: C. albicans, MRSA,; also recorded: C. jeikeium

1T-154 (YFSFLEIVGMARR)
Target(s) [1, 4]: P. gingivalis

1T-270 (VHEFDIQKILQNR)
Target(s) [1, 2]: F. nucleatum, S. mutans, S. oralis,; also recorded: S. sanguinis

PF-153 (GILARADCSQIA)
Target(s) [1, 2]: M. luteus, P. mirabilis, E. coli, and MRSA
